Data set [1] deals with PC12 cells. Kind of data set: MTT assay, Aβ1-42-induced cytotoxicity in PC12 cells. The class given is cell-based. Particulars: 1 μM Aβ1-42 for 24 hours. The method, then: PC12 cells were cultured in DMEM (Dulbecco's Modified Eagle's) medium supplemented with 10% fetal bovine serum (FBS) and 100 μg/ml streptomycin in a humidified incubator 5% CO2 at 37° C. The cells were seeded in 96-well plates, and then treated with Aβ1-42a and artemether. MTT assay was used to access cell viability. MTT (3-(4,5-dimethylthiazole-2)-2,5-diphenyltetrazolium bromide) the detection principle relies on the enzymatic reduction of MTT to water-insoluble purple crystals-formazan particles, which is catalyzed by mitochondrial succinate dehydrogenase produced in living cells. The light absorption value is measured by an enzyme-linked immunoassay at 570 nm wavelength allowing to determine the number of living cells based on the amount of formazan produced. In short, PC12 cells were seeded in 96-well plates. In the next day the medium was replaced with fresh DMEM, and the cells pretreated with different concentrations of artemether or untreated followed by incubation with 1 μM Aβ1-42 for 24 hours. After 24 hours, MTT (0.5 mg/mL) was added to each well and further incubated for another 3 hours at 37° C. After incubation, the cells and MTT formazan crystals were dissolved with DMSO, and the absorbance was measured at 570 nm. Cell viability was calculated as a percentage of the control group.
Background: Tetrazolium dyes change colour on reduction, which living cells bring about.

Data set [2] relates to PC12 cells. Kind of data set: AMPK inhibitor compound C against the protective effect of artemether in PC12 cells (MTT, flow cytometry, Western blot). The class given is cell-based. The method, then:
Apoptosis was evaluated by flow cytometry. PC12 cells were seeded into 6-well plates, treated, digested with 0.25% trypsin, harvested, washed twice with ice cold 1×PBS and suspended with buffer. […] were stained with 5 μL Annexin-V-FITC and 10 μL propidium iodide solution, incubated for 30 min in the dark, and the apoptotic cells in each group were determined and analyzed using a flow cytometer. The other steps are the same as in Embodiment 2.4 and Embodiment 10.
(In general: A flow cytometer gives signals particle by particle.)

Molecules are shown by their SMILES.

With `CO[C@H]1O[C@@H]2O[C@@]3(C)CC[C@H]4[C@H](C)CC[C@@H]([C@H]1C)[C@@]24OO3` [artemether], the “effective dose for protection from Aβ1-42-induced cytotoxicity” value in the data set on PC12 cells [1] was “about 10 μM”. For the same compound, the “protection from Aβ1-42-induced cytotoxicity (cell viability, MTT)” value in the data set on PC12 cells [1] (artemether pretreatment) is recorded as “protected PC12 cells from Aβ1-42-induced cytotoxicity in a concentration-dependent manner”.

As for `c1cc(-c2cnn3cc(-c4ccc(OCCN5CCCCC5)cc4)cnc23)ccn1` [compound C], the “effect on phosphorylation of AMPK and GSK3β (ser9) induced by artemether” value in the data set on PC12 cells [2] (Western blot, GAPDH as internal control) was “reversed the phosphorylation of AMPK and GSK3β (ser9) induced by artemether”. In addition, in the data set with PC12 cells [2] (compound C pretreatment with artemether, Aβ1-42 (1 μM)), the “effect on the protection by artemether from Aβ1-42-induced apoptosis (flow cytometry)” value is reported as “alleviated the protective effect of artemether on Aβ1-42-induced apoptosis”. In the data set on PC12 cells [2] (compound C pretreatment with artemether, Aβ1-42 (1 μM) for 24 hours), the “effect on the cell survival effect of artemether (cell viability, MTT)” value is on record as “abolished the elevated cell survival effect of artemether”.

For the origin of these results see patent US12453715B2, “Use of artemether in the prevention and treatment of Alzheimer's disease” (UNIVERSITY OF MACAU, priority 2018, dated 2025).
